Source: patent publication US8309597B2, “1,1′-diadamantyl carboxylic acids, medicaments containing such compounds and their use” (Boehringer Ingelheim International GmbH, priority 2008, dated 2012)

Biological target: T1, 11β-hydroxysteroid dehydrogenase (HSD) 1 (Homo sapiens, UniProt P28845)
T1 construct: detecting cortisol generated from cortisterone by human liver microsomes; from tissue; host or cells: human liver microsomes
Assay: In vitro inhibition of 11β-HSD1, HTRF detection of cortisol generated from cortisone by human liver microsomes
Format: biochemical
Settings: compound concentration 1 μM, 100% indicates no inhibition, zero or below zero indicates complete inhibition
Method: Briefly, compounds are incubated for 1 hour at 37° C. in Tris buffer (20 mM tris, 5 mM EDTA, pH 6.0) containing NADPH (200 μM) and cortisone (80 nM). Cortisol generated in the reaction is then detected with a competitive immunoassay, involving two HTRF conjugates: cortisol linked to XL665 and anti-cortisol antibody labeled with Europium cryptate. The incubation period for detection reaction is typically 2 hours. The amount of cortisol is determined by reading the time-resolved fluorescence of the wells (Ex 320/75 nm; Em 615/8.5 nm and 665/7.5 nm). The ratio of the two emission signals is then calculated (Em665*10000/Em615). […] Each assay also contains a calibration curve with cortisol to transform the fluorescent data into cortisol concentrations. Percent inhibition (% CTL) of each compound is determined relative to the carbenoxolone signal and IC50 curves are generated.
The % CTL values of some example compounds at a concentration of 1 μM are provided in the following Table 2 wherein 100% indicates no inhibition and a value of zero or below zero indicates complete inhibition. The measurement of % CTL is described hereinbefore.

T1 sequence (P28845 whole entry): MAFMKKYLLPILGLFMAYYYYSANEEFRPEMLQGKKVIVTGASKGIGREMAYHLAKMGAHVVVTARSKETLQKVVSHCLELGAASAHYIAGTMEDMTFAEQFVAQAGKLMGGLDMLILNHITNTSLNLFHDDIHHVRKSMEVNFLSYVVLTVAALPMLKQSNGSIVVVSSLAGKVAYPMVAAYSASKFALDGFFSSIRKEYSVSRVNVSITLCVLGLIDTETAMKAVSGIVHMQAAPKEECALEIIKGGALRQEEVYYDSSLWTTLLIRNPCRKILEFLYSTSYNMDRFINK

First: COc1ccc(N(C)C(=O)C23CC4CC(C2)CC(C25CC6CC(CC(C(=O)O)(C6)C2)C5)(C4)C3)cc1 [Example 33]
Second: COc1ccc(C(=O)C23CC4CC(C2)CC(C25CC6CC(CC(C(=O)O)(C6)C2)C5)(C4)C3)cc1 [Example 24]
The “11β-HSD 1 inhibitory activity (% CTL at 1 μM)” value of the first is higher: 81 % CTL for the first, −33 % CTL for the second.

First: O=C(O)C12CC3CC(C1)CC(C14CC5CC(CC(C(=O)N6CCc7ccccc7C6)(C5)C1)C4)(C3)C2 [Example 43]
Second: O=C(O)C12CC3CC(C1)CC(C14CC5CC(CC(C(=O)N6Cc7ccccc7C6)(C5)C1)C4)(C3)C2 [Example 42]
The “11β-HSD 1 inhibitory activity (% CTL at 1 μM)” value of the first is higher: −20 % CTL for the first, −36 % CTL for the second.

Compared with `CN(C)C(=O)c1ccc(Oc2ccc3c(c2)CN(C(=O)C24CC5CC(C2)CC(C26CC7CC(CC(C(=O)O)(C7)C2)C6)(C5)C4)CC3)cc1` [Example 46], `O=C(O)c1ccc(Oc2ccc3c(c2)CN(C(=O)C24CC5CC(C2)CC(C26CC7CC(CC(C(=O)O)(C7)C2)C6)(C5)C4)CC3)cc1` [Example 45] is higher in “11β-HSD 1 inhibitory activity (% CTL at 1 μM)” value: 0 % CTL for the first, 8 % CTL for the second.

First: CNC(=O)C12CC3CC(C1)CC(C14CC5CC(CC(C(=O)O)(C5)C1)C4)(C3)C2 [Example 2]
Second: COC(=O)C12CC3CC(C1)CC(C14CC5CC(CC(C(=O)O)(C5)C1)C4)(C3)C2 [Example 1]
The “11β-HSD 1 inhibitory activity (% CTL at 1 μM)” value of the first is higher: 29 % CTL for the first, −7 % CTL for the second.

Compared with `O=C(O)C12CC3CC(C1)CC(C14CC5CC(CC(c6nnn[nH]6)(C5)C1)C4)(C3)C2` [Example 21], `NC12CC3CC(C1)CC(C14CC5CC(CC(C(=O)O)(C5)C1)C4)(C3)C2` [Example 8] is higher in “11β-HSD 1 inhibitory activity (% CTL at 1 μM)” value: 69 % CTL for the first, 95 % CTL for the second.

First: O=C(O)C12CC3CC(C1)CC(C14CC5CC(CC(C(=O)NCCO)(C5)C1)C4)(C3)C2 [Example 13]
Second: N#CNC(=O)C12CC3CC(C1)CC(C14CC5CC(CC(C(=O)O)(C5)C1)C4)(C3)C2 [Example 19]
The “11β-HSD 1 inhibitory activity (% CTL at 1 μM)” value of the first is higher: 53 % CTL for the first, 19 % CTL for the second.

Compared with `CN(CCc1ccccc1)C(=O)C12CC3CC(C1)CC(C14CC5CC(CC(C(=O)O)(C5)C1)C4)(C3)C2` [Example 10], `CN(Cc1ccccc1)C(=O)C12CC3CC(C1)CC(C14CC5CC(CC(C(=O)O)(C5)C1)C4)(C3)C2` [Example 9] is higher in “11β-HSD 1 inhibitory activity (% CTL at 1 μM)” value: −3 % CTL for the first, 49 % CTL for the second.

Going from `CC(C)N(C)C(=O)C12CC3CC(C1)CC(C14CC5CC(CC(C(=O)O)(C5)C1)C4)(C3)C2` [Example 17] to `CN(C)C(=O)C12CC3CC(C1)CC(C14CC5CC(CC(C(=O)O)(C5)C1)C4)(C3)C2` [Example 4], the “11β-HSD 1 inhibitory activity (% CTL at 1 μM)” value rises from −26 % CTL to −13 % CTL.

Compared with `O=C(O)C12CC3CC(C1)CC(C14CC5CC(CC(C(=O)N(CCc6ccccc6)C6CCCCC6)(C5)C1)C4)(C3)C2` [Example 39], `CCN(C(=O)C12CC3CC(C1)CC(C14CC5CC(CC(C(=O)O)(C5)C1)C4)(C3)C2)C1CCCCC1` [Example 35] is lower in “11β-HSD 1 inhibitory activity (% CTL at 1 μM)” value: 53 % CTL for the first, −3 % CTL for the second.

Going from `CN(C(=O)C12CC3CC(C1)CC(C14CC5CC(CC(C(=O)O)(C5)C1)C4)(C3)C2)C1CCCCC1` [Example 29] to `CN(C(=O)C12CC3CC(C1)CC(C14CC5CC(CC(C(=O)O)(C5)C1)C4)(C3)C2)C1CCCC1` [Example 40], the “11β-HSD 1 inhibitory activity (% CTL at 1 μM)” value falls from −8 % CTL to −20 % CTL.

Compared with `CN(C(=O)C12CC3CC(C1)CC(C14CC5CC(CC(C(=O)O)(C5)C1)C4)(C3)C2)c1ccccc1` [Example 30], `CN(C(=O)C12CC3CC(C1)CC(C14CC5CC(CC(C(=O)O)(C5)C1)C4)(C3)C2)c1ccc(-c2ccccc2)cc1` [Example 34] is higher in “11β-HSD 1 inhibitory activity (% CTL at 1 μM)” value: 30 % CTL for the first, 36 % CTL for the second.

Going from `CC(=O)NC12CC3CC(C1)CC(C14CC5CC(CC(C(=O)O)(C5)C1)C4)(C3)C2` [Example 16] to `CC(C)(C)OC(=O)NC12CC3CC(C1)CC(C14CC5CC(CC(C(=O)O)(C5)C1)C4)(C3)C2` [Example 7], the “11β-HSD 1 inhibitory activity (% CTL at 1 μM)” value falls from 69 % CTL to 26 % CTL.

Going from `O=C(O)C12CC3CC(C1)CC(C14CC5CC(CC(CO)(C5)C1)C4)(C3)C2` [Example 14] to `NC(=O)C12CC3CC(C1)CC(C14CC5CC(CC(C(=O)O)(C5)C1)C4)(C3)C2` [Example 5], the “11β-HSD 1 inhibitory activity (% CTL at 1 μM)” value rises from −5 % CTL to 50 % CTL.

First: CCN(C)C(=O)C12CC3CC(C1)CC(C14CC5CC(CC(C(=O)O)(C5)C1)C4)(C3)C2 [Example 18]
Second: O=C(O)C12CC3CC(C1)CC(C14CC5CC(CC(C(=O)N6CCC6)(C5)C1)C4)(C3)C2 [Example 20]
The “11β-HSD 1 inhibitory activity (% CTL at 1 μM)” value of the first is lower: −26 % CTL for the first, 7 % CTL for the second.

Going from `CN(C(=O)C12CC3CC(C1)CC(C14CC5CC(CC(C(=O)O)(C5)C1)C4)(C3)C2)C1CCC(c2ccccc2)CC1` (stereo not shown) [Example 36] to `CN(C(=O)C12CC3CC(C1)CC(C14CC5CC(CC(C(=O)O)(C5)C1)C4)(C3)C2)C1CCC(C(C)(C)C)CC1` (stereo not shown) [Example 38], the “11β-HSD 1 inhibitory activity (% CTL at 1 μM)” value falls from 13 % CTL to 7 % CTL.

Compared with `O=C(O)C12CC3CC(C1)CC(C14CC5CC(CC(COc6ccccn6)(C5)C1)C4)(C3)C2` [Example 15], `O=C(O)C12CC3CC(C1)CC(C14CC5CC(CC(c6nc7ccccc7o6)(C5)C1)C4)(C3)C2` [Example 27] is lower in “11β-HSD 1 inhibitory activity (% CTL at 1 μM)” value: 34 % CTL for the first, 12 % CTL for the second.

Going from `CC(C)(O)C12CC3CC(C1)CC(C14CC5CC(CC(C(=O)O)(C5)C1)C4)(C3)C2` [Example 3] to `N#CC12CC3CC(C1)CC(C14CC5CC(CC(C(=O)O)(C5)C1)C4)(C3)C2` [Example 6], the “11β-HSD 1 inhibitory activity (% CTL at 1 μM)” value rises from −11 % CTL to 1 % CTL.

Compared with `O=C(O)C12CC3CC(C1)CC(C14CC5CC(CC(C(=O)Nc6ccccc6)(C5)C1)C4)(C3)C2` [Example 28], `O=C(O)C12CC3CC(C1)CC(C14CC5CC(CC(C(=O)N6CCc7ccccc76)(C5)C1)C4)(C3)C2` [Example 51] is lower in “11β-HSD 1 inhibitory activity (% CTL at 1 μM)” value: 96 % CTL for the first, 4 % CTL for the second.

Compared with `COCC1CCCN1C(=O)C12CC3CC(C1)CC(C14CC5CC(CC(C(=O)O)(C5)C1)C4)(C3)C2` (stereo not shown) [Example 47], `O=C(O)C12CC3CC(C1)CC(C14CC5CC(CC(C(=O)N6CCCC6)(C5)C1)C4)(C3)C2` [Example 11] is higher in “11β-HSD 1 inhibitory activity (% CTL at 1 μM)” value: −15 % CTL for the first, −11 % CTL for the second.

First: O=C(O)C12CC3CC(C1)CC(C14CC5CC(CC(c6nnc(-c7ccccc7)o6)(C5)C1)C4)(C3)C2 [Example 26]
Second: O=C(O)C12CC3CC(C1)CC(C14CC5CC(CC(c6ncc7ccccc7n6)(C5)C1)C4)(C3)C2 [Example 50]
The “11β-HSD 1 inhibitory activity (% CTL at 1 μM)” value of the first is higher: 44 % CTL for the first, −9 % CTL for the second.

Going from `COc1ccc(CCCN(C)C(=O)C23CC4CC(C2)CC(C25CC6CC(CC(C(=O)O)(C6)C2)C5)(C4)C3)cc1` [Example 23] to `CN(C(=O)C12CC3CC(C1)CC(C14CC5CC(CC(C(=O)O)(C5)C1)C4)(C3)C2)C1CCCNC1` (stereo not shown) [Example 31], the “11β-HSD 1 inhibitory activity (% CTL at 1 μM)” value rises from −18 % CTL to 61 % CTL.

Going from `CN1CCN(C(=O)C23CC4CC(C2)CC(C25CC6CC(CC(C(=O)O)(C6)C2)C5)(C4)C3)CC1` [Example 22] to `O=C(O)C12CC3CC(C1)CC(C14CC5CC(CC(C(=O)N6CCOCC6)(C5)C1)C4)(C3)C2` [Example 12], the “11β-HSD 1 inhibitory activity (% CTL at 1 μM)” value falls from 37 % CTL to 1 % CTL.

Going from `N#Cc1ccc2c(c1)CN(C(=O)C13CC4CC(C1)CC(C15CC6CC(CC(C(=O)O)(C6)C1)C5)(C4)C3)CC2` [Example 44] to `O=C(O)C12CC3CC(C1)CC(C14CC5CC(CC(C(=O)N6CCc7cc(Br)ccc7C6)(C5)C1)C4)(C3)C2` [Example 49], the “11β-HSD 1 inhibitory activity (% CTL at 1 μM)” value rises from −17 % CTL to 24 % CTL.

First: O=C(O)C12CC3CC(C1)CC(C14CC5CC(CC(C6=NCc7ccccc7N6)(C5)C1)C4)(C3)C2 [Example 37]
Second: Cn1c(C23CC4CC(C2)CC(C25CC6CC(CC(C(=O)O)(C6)C2)C5)(C4)C3)nc2ccccc21 [Example 32]
The “11β-HSD 1 inhibitory activity (% CTL at 1 μM)” value of the first is higher: 62 % CTL for the first, 8 % CTL for the second.

In the case of `O=C(O)C12CC3CC(C1)CC(C14CC5CC(CC(c6nc7ccccc7n6CCc6ccccc6)(C5)C1)C4)(C3)C2` [Example 41], the “11β-HSD 1 inhibitory activity (% CTL at 1 μM)” value is reported as 0 % CTL.
